Values of other authors as cited in patent US7175830B2, “Imaging of drug accumulation as a guide to antitumor therapy” (The United States of America as represented by the …, priority 1999, dated 2007).

Conditions: circulates in the body; higher than SN-38, the active form

circulating concentration relative to that of its metabolite SN-38: about 100 fold
Structure (SMILES): CCc1c2c(nc3ccc(OC(=O)N4CCC(N5CCCCC5)CC4)cc13)-c1cc3c(c(=O)n1C2)COC(=O)[C@]3(O)CC [Irinotecan]
